# Experimental data taken from US20220370468A1, “Methods of treating sleep disorders associated with pain” (Astellas Pharma Global Development, Inc., priority 2019, published 2022).
# Assays:
# [1] = Nonclinical studies: toxicological profile
# [2] = test system: patients with fibromyalgia; test: Phase 2a study: daily fibromyalgia sleep diary (FMSD); type: in vivo, human; conditions: for Degree of being rested when waking up for the day, change from baseline, LS Mean (SE) / Degree of deep sleep, change from baseline, LS Mean (SE) / Degree of having enough sleep during the previous night, change from baseline, LS Mean (SE) / Difficulty getting comfortable, change from baseline, LS Mean (SE) / Difficulty staying asleep, change from baseline, LS Mean (SE) / Difficulty with beginning the day, change from baseline, LS Mean (SE) / Difficulty with falling asleep, change from baseline, LS Mean (SE) / Restlessness of sleep, change from baseline, LS Mean (SE): FAS, 15 mg
# Excerpt: In some embodiments, the clinical score is a score for one or more FMSD (fibromyalgia sleep diary) items. The FMSD (Kleinman et al., 2014) is a validated 8-item patient-reported outcome that assesses sleep disturbances specific to patients with fibromyalgia across the domains of falling asleep, staying asleep, and sufficient sleep (Kleinman et al., 2014). Each day upon waking, patients rated their sleep quality over the previous night on an 11-point numerical integer rating scale (NRS). Each item is rated on an 11-point NRS, ranging from 0, which corresponds to “not at all”, to 10, which corresponds to “extremely.” FMSD items include: • difficulty with falling asleep (improvement shown as a decrease in measurement); • restlessness of sleep (improvement shown as a decrease in measurement); • difficulty getting comfortable (improvement shown as a decrease in measurement); • difficulty staying asleep (improvement shown as a decrease in measurement); • degree of deep sleep (improvement shown as an increase in measurement); • degree of being rested when waking up for the day (improvement shown as an increase in measurement); • difficulty with beginning the day (improvement shown as a decrease in measurement); and • degree of having enough sleep during the previous night (improvement shown as an increase in measurement). A phase 2a, randomized, double-blind, placebo-controlled, parallel group study was conducted at 24 sites in the United States to assess the analgesic efficacy and safety of the compound of Formula (I) in patients with fibromyalgia. The study consisted of the following: a screening period of up to 42 days, which included a washout period and a 7-day baseline diary run-in; a 57-day double-blind randomized treatment period with site visits at Days 1, 15, 29, and 57; and a 4-week follow-up period consisting of a clinic visit after 2 weeks and a phone call after 4 weeks. The study was carried out in accordance with the Declaration of Helsinki and approved by the relevant Institutional Review Boards. All participants provided written informed consent prior to the initiation of any study procedures. Male and female patients aged 18 to 80 years were included in the trial if they met the American College of Rheumatology (ACR) 1990 and 2010 fibromyalgia diagnostic criteria at screening (Wolfe et al., 1990; Wolfe et al., 2010b). The core diagnostic criteria for fibromyalgia are defined by the 1990 criteria (Wolfe et al., 1990), and while ACR has published newer criteria, the 1990 version is still commonly utilized in clinical trials. To meet ACR 1990 criteria, patients must have had widespread pain for at least 3 months, defined as the presence of pain on the right and left sides of the body, pain above and below the waist, and pain in the axial skeleton (cervical spine, anterior chest, thoracic spine, or low back) (Wolfe et al., 1990). They must also have had pain in at least 11 of 18 tender point sites on digital palpation performed with an approximate force of 4 kg. To meet the ACR 2010 criteria, patients needed to have a widespread pain index (WPI) score of ≥7 and a symptom severity (SS) scale score ≥5, or a WPI score 3-6 and an SS scale score ≥9 (Wolfe et al., 2010b). Symptoms must have been present at a similar level for at least 3 months and patients must have been free of any other disorder that could have explained the pain. […] Eligible patients were randomized 1:1 using Interactive Response Technology to receive oral Compound of Formula (I) 15 mg (three capsules of 5 mg) or matching placebo capsules, each given once daily in the morning, with or without food, for 8 weeks. Sleep disturbance was assessed as an exploratory endpoint using change from baseline to each respective week (Weeks 1-8) and from baseline to EOT in daily fibromyalgia sleep diary (FMSD) responses (Kleinman et al., 2014). […]
smiles,measurement,setting,value
Cc1sc2cc(Cl)ccc2c1-c1ccc(N2CCO[C@H](CNC3CCC3)C2)c(C(=O)O)c1 [Compound of Formula (I)],toxicological profile,[1],acceptable toxicological profile
same,"Difficulty with falling asleep, Treatment Difference (SE) (Compound of Formula (I) - placebo)","[2]; EOT (LOCF), ANCOVA, 1-sided p 0.008",−0.61 (0.25)
same,"Restlessness of sleep, Treatment Difference (SE) (Compound of Formula (I) - placebo)","[2]; EOT (LOCF), ANCOVA, 1-sided p 0.009",−0.56 (0.23)
same,"Difficulty with beginning the day, Treatment Difference (SE) (Compound of Formula (I) - placebo)","[2]; EOT (LOCF), ANCOVA, 1-sided p 0.044",−0.42 (0.25)
same,"Difficulty getting comfortable, Treatment Difference (SE) (Compound of Formula (I) - placebo)","[2]; EOT (LOCF), ANCOVA, 1-sided p 0.054",−0.35 (0.22)
same,"Degree of having enough sleep during the previous night, Treatment Difference (SE) (Compound of Formula (I) - placebo)","[2]; EOT (LOCF), ANCOVA, 1-sided p 0.100",0.32 (0.25)
same,"Difficulty staying asleep, Treatment Difference (SE) (Compound of Formula (I) - placebo)","[2]; EOT (LOCF), ANCOVA, 1-sided p 0.158",−0.22 (0.22)
same,"Degree of deep sleep, Treatment Difference (SE) (Compound of Formula (I) - placebo)","[2]; EOT (LOCF), ANCOVA, 1-sided p 0.240",0.16 (0.22)
same,"Degree of being rested when waking up for the day, Treatment Difference (SE) (Compound of Formula (I) - placebo)","[2]; EOT (LOCF), ANCOVA, 1-sided p 0.337",0.10 (0.24)
same,"Degree of being rested when waking up for the day, change from baseline, LS Mean (SE)","[2]; EOT (LOCF), ANCOVA",0.78 (0.17)
same,"Degree of deep sleep, change from baseline, LS Mean (SE)","[2]; EOT (LOCF), ANCOVA",0.60 (0.16)
same,"Degree of having enough sleep during the previous night, change from baseline, LS Mean (SE)","[2]; EOT (LOCF), ANCOVA",1.09 (0.18)
same,"Difficulty getting comfortable, change from baseline, LS Mean (SE)","[2]; EOT (LOCF), ANCOVA",−1.27 (0.16)
same,"Difficulty staying asleep, change from baseline, LS Mean (SE)","[2]; EOT (LOCF), ANCOVA",−1.08 (0.16)
same,"Difficulty with beginning the day, change from baseline, LS Mean (SE)","[2]; EOT (LOCF), ANCOVA",−0.91 (0.18)
same,"Difficulty with falling asleep, change from baseline, LS Mean (SE)","[2]; EOT (LOCF), ANCOVA",−1.41 (0.18)
same,"Restlessness of sleep, change from baseline, LS Mean (SE)","[2]; EOT (LOCF), ANCOVA",−1.50 (0.17)
same,"Difficulty with falling asleep, Treatment Difference (SE) (Compound of Formula (I) - placebo)","[2]; Week 8, MMRM, 1-sided p 0.018",−0.56 (0.26)
same,"Restlessness of sleep, Treatment Difference (SE) (Compound of Formula (I) - placebo)","[2]; Week 8, MMRM, 1-sided p 0.033",−0.48 (0.26)
same,"Difficulty with beginning the day, Treatment Difference (SE) (Compound of Formula (I) - placebo)","[2]; Week 8, MMRM, 1-sided p 0.070",−0.39 (0.26)
same,"Degree of having enough sleep during the previous night, Treatment Difference (SE) (Compound of Formula (I) - placebo)","[2]; Week 8, MMRM, 1-sided p 0.131",0.30 (0.27)
same,"Difficulty getting comfortable, Treatment Difference (SE) (Compound of Formula (I) - placebo)","[2]; Week 8, MMRM, 1-sided p 0.167",−0.23 (0.23)
same,"Difficulty staying asleep, Treatment Difference (SE) (Compound of Formula (I) - placebo)","[2]; Week 8, MMRM, 1-sided p 0.275",−0.14 (0.24)
same,"Degree of deep sleep, Treatment Difference (SE) (Compound of Formula (I) - placebo)","[2]; Week 8, MMRM, 1-sided p 0.331",0.11 (0.24)
same,"Degree of being rested when waking up for the day, Treatment Difference (SE) (Compound of Formula (I) - placebo)","[2]; Week 8, MMRM, 1-sided p 0.432",0.04 (0.25)
same,"Degree of being rested when waking up for the day, change from baseline, LS Mean (SE)","[2]; Week 8, MMRM",0.74 (0.18)
same,"Degree of deep sleep, change from baseline, LS Mean (SE)","[2]; Week 8, MMRM",0.55 (0.17)
same,"Degree of having enough sleep during the previous night, change from baseline, LS Mean (SE)","[2]; Week 8, MMRM",1.10 (0.19)
same,"Difficulty getting comfortable, change from baseline, LS Mean (SE)","[2]; Week 8, MMRM",−1.24 (0.17)
same,"Difficulty staying asleep, change from baseline, LS Mean (SE)","[2]; Week 8, MMRM",−1.09 (0.17)
same,"Difficulty with beginning the day, change from baseline, LS Mean (SE)","[2]; Week 8, MMRM",−0.89 (0.19)
same,"Difficulty with falling asleep, change from baseline, LS Mean (SE)","[2]; Week 8, MMRM",−1.46 (0.19)
same,"Restlessness of sleep, change from baseline, LS Mean (SE)","[2]; Week 8, MMRM",−1.53 (0.19)
same,FMSD difficulty with falling asleep versus placebo,"[2]; beginning at Week 2, P=0.032",Statistically significant improvements
same,FMSD difficulty getting comfortable versus placebo,"[2]; beginning at Week 3, P=0.007",Statistically significant improvements
same,FMSD difficulty staying asleep versus placebo,"[2]; beginning at Week 3, P=0.013",Statistically significant improvements
same,FMSD restlessness of sleep versus placebo,"[2]; beginning at Week 3, P=0.013",Statistically significant improvements
same,FMSD degree of deep sleep versus placebo,"[2]; beginning at Week 6, P=0.035",Statistically significant improvements
same,FMSD difficulty with beginning the day versus placebo,"[2]; beginning at Week 6, P=0.040",Statistically significant improvements
